# In ChEMBL document CHEMBL1201862, “PubChem BioAssay data set” (2004):
#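 A five-concentration, 48-hour dose response in 96-well plates underlies each endpoint, interpolated linearly between surrounding concentrations. GI50 is the concentration that inhibits growth by half.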 The source made the active and inactive calls. Rule as the data show it: active = GI50 up to about 1.1 µM and inactive = higher.
# Key:
# Assay in all cases: growth of human tumour cells (NCI), 48 h
# SW-620 = test system: SW-620
# HCT-116 = test system: HCT-116
# RXF 393 = test system: RXF 393
# PC-3 = test system: PC-3
# UACC-257 = test system: UACC-257
# LOX IMVI = test system: LOX IMVI
# A549 = test system: A549
# K562 = test system: K562
# HCT-15 = test system: HCT-15
# TK-10 = test system: TK-10
# SN12C = test system: SN12C
# IGROV-1 = test system: IGROV-1
# NCI-H522 = test system: NCI-H522
# M14 = test system: M14
# NCI/ADR-RES = test system: NCI/ADR-RES
# OVCAR-3 = test system: OVCAR-3
# HL-60 = test system: HL-60
# 786-0 = test system: 786-0
# U-251 = test system: U-251
# NCI-H23 = test system: NCI-H23
# MDA-MB-435 = test system: MDA-MB-435
# HT-29 = test system: HT-29
# RPMI-8226 = test system: RPMI-8226
# ACHN = test system: ACHN
# SR = test system: SR
# CAKI-1 = test system: CAKI-1
# T47D = test system: T47D
# DU-145 = test system: DU-145
# SK-MEL-2 = test system: SK-MEL-2
# OVCAR-4 = test system: OVCAR-4
# SK-MEL-5 = test system: SK-MEL-5
# Malme-3M = test system: Malme-3M
# NCI-H226 = test system: NCI-H226
# SF-295 = test system: SF-295
# Hs-578T = test system: Hs-578T
# A498 = test system: A498
# SK-OV-3 = test system: SK-OV-3
# MDA-MB-231 = test system: MDA-MB-231
# UACC-62 = test system: UACC-62
# SF-268 = test system: SF-268
# HOP-92 = test system: HOP-92
# SF-539 = test system: SF-539
# OVCAR-8 = test system: OVCAR-8
# CCRF-CEM = test system: CCRF-CEM
# HOP-62 = test system: HOP-62
# COLO 205 = test system: COLO 205
# OVCAR-5 = test system: OVCAR-5
# MDA-N = test system: MDA-N
# SNB-75 = test system: SNB-75
# MCF7 = test system: MCF7
# EKVX = test system: EKVX
# HCC 2998 = test system: HCC 2998
# SK-MEL-28 = test system: SK-MEL-28
# SNB-19 = test system: SNB-19
# UO-31 = test system: UO-31
# MOLT-4 = test system: MOLT-4
# KM12 = test system: KM12
# NCI-H460 = test system: NCI-H460
smiles,measurement,setting,value
Cc1c(C)n(-c2ccccc2)c2nc(S(C)(=O)=O)nc(S(C)(=O)=O)c12,GI50,SW-620,228 nM (active)
same,GI50,HCT-116,1.53 µM (inactive)
same,GI50,RXF 393,475 nM (active)
same,GI50,PC-3,5.06 µM (inactive)
same,GI50,UACC-257,1.64 µM (inactive)
same,GI50,LOX IMVI,1.71 µM (inactive)
same,GI50,A549,16 µM (inactive)
same,GI50,K562,1.4 µM (inactive)
same,GI50,HCT-15,1610 nM
same,GI50,TK-10,1.58 µM (inactive)
same,GI50,SN12C,17.8 µM (inactive)
same,GI50,IGROV-1,4.72 µM (inactive)
same,GI50,NCI-H522,1.75 µM (inactive)
same,GI50,M14,1.62 µM (inactive)
same,GI50,NCI/ADR-RES,23.1 µM (inactive)
same,GI50,OVCAR-3,1.6 µM (inactive)
same,GI50,HL-60,1.58 µM (inactive)
same,GI50,786-0,1.28 µM (inactive)
same,GI50,U-251,5.9 µM (inactive)
same,GI50,NCI-H23,7.82 µM (inactive)
same,GI50,MDA-MB-435,1.79 µM (inactive)
same,GI50,HT-29,1.92 µM (inactive)
same,GI50,RPMI-8226,2.65 µM (inactive)
same,GI50,ACHN,1.57 µM (inactive)
same,GI50,SR,1 µM (active)
same,GI50,CAKI-1,171 nM (active)
same,GI50,T47D,2.05 µM (inactive)
same,GI50,DU-145,14.6 µM (inactive)
same,GI50,SK-MEL-2,2.07 µM (inactive)
same,GI50,OVCAR-4,1.65 µM (inactive)
same,GI50,SK-MEL-5,12.7 µM (inactive)
same,GI50,Malme-3M,1.4 µM (inactive)
same,GI50,NCI-H226,21.4 µM (inactive)
same,GI50,SF-295,16.9 µM (inactive)
same,GI50,Hs-578T,16.1 µM (inactive)
same,GI50,A498,14.1 µM (inactive)
same,GI50,SK-OV-3,19.6 µM (inactive)
same,GI50,MDA-MB-231,5.73 µM (inactive)
same,GI50,UACC-62,3.28 µM (inactive)
same,GI50,SF-268,14 µM (inactive)
same,GI50,HOP-92,1.61 µM (inactive)
same,GI50,SF-539,14 µM (inactive)
same,GI50,OVCAR-8,2.19 µM (inactive)
same,GI50,CCRF-CEM,634 nM (active)
same,GI50,HOP-62,16.8 µM (inactive)
same,GI50,COLO 205,1.8 µM (inactive)
same,GI50,OVCAR-5,1.82 µM (inactive)
same,GI50,MDA-N,1.64 µM (inactive)
same,GI50,SNB-75,19.3 µM (inactive)
same,GI50,MCF7,1.25 µM (inactive)
same,GI50,EKVX,5.41 µM (inactive)
same,GI50,HCC 2998,23.3 µM (inactive)
same,GI50,SK-MEL-28,2.53 µM (inactive)
same,GI50,SNB-19,3.3 µM (inactive)
same,GI50,UO-31,1.71 µM (inactive)
same,GI50,MOLT-4,1.48 µM (inactive)
same,GI50,KM12,13.7 µM (inactive)
same,GI50,NCI-H460,16.9 µM (inactive)
COc1cc([C@@H]2c3cc4c(cc3[C@@H](Nc3ccccc3C(=O)c3ccccc3)[C@H]3COC(=O)[C@H]23)OCO4)cc(OC)c1OC,GI50,SW-620,471 nM (active)
same,GI50,HCT-116,0.321 µM (active)
same,GI50,RXF 393,459 nM (active)
same,GI50,PC-3,0.622 µM (active)
same,GI50,UACC-257,0.933 µM (active)
same,GI50,LOX IMVI,0.313 µM (active)
same,GI50,A549,0.753 µM (active)
same,GI50,K562,0.35 µM (active)
same,GI50,HCT-15,444 nM
same,GI50,TK-10,> 100 µM (inactive)
same,GI50,SN12C,1.9 µM (inactive)
same,GI50,IGROV-1,0.836 µM (active)
same,GI50,NCI-H522,0.31 µM (active)
same,GI50,M14,0.729 µM (active)
same,GI50,NCI/ADR-RES,0.479 µM (active)
same,GI50,OVCAR-3,0.785 µM (active)
same,GI50,HL-60,0.212 µM (active)
same,GI50,786-0,0.618 µM (active)
same,GI50,U-251,0.362 µM (active)
same,GI50,NCI-H23,0.668 µM (active)
same,GI50,MDA-MB-435,0.27 µM (active)
same,GI50,HT-29,0.314 µM (active)
same,GI50,RPMI-8226,0.381 µM (active)
same,GI50,ACHN,0.535 µM (active)
same,GI50,SR,0.332 µM (active)
same,GI50,CAKI-1,741 nM (active)
same,GI50,T47D,> 100 µM (inactive)
same,GI50,DU-145,1.82 µM (inactive)
same,GI50,SK-MEL-2,> 100 µM (inactive)
same,GI50,OVCAR-4,> 27.2 µM (inactive)
same,GI50,SK-MEL-5,0.475 µM (active)
same,GI50,Malme-3M,0.458 µM (active)
same,GI50,NCI-H226,0.431 µM (active)
same,GI50,SF-295,0.376 µM (active)
same,GI50,Hs-578T,0.373 µM (active)
same,GI50,A498,0.149 µM (active)
same,GI50,MDA-MB-231,1.81 µM (inactive)
same,GI50,UACC-62,0.362 µM (active)
same,GI50,SF-268,0.855 µM (active)
same,GI50,SF-539,0.259 µM (active)
same,GI50,OVCAR-8,0.47 µM (active)
same,GI50,CCRF-CEM,347 nM (active)
same,GI50,HOP-62,2.11 µM (inactive)
same,GI50,COLO 205,0.472 µM (active)
same,GI50,OVCAR-5,0.885 µM (active)
same,GI50,MDA-N,0.316 µM (active)
same,GI50,SNB-75,0.849 µM (active)
same,GI50,MCF7,0.379 µM (active)
same,GI50,EKVX,> 54.6 µM (inactive)
same,GI50,HCC 2998,2.36 µM (inactive)
same,GI50,SK-MEL-28,0.472 µM (active)
same,GI50,SNB-19,1.37 µM (inactive)
same,GI50,UO-31,0.776 µM (active)
same,GI50,MOLT-4,0.38 µM (active)
same,GI50,KM12,0.3 µM (active)
same,GI50,NCI-H460,0.442 µM (active)
